Data taken from patent US6150361A, “Triazineone compounds for treating diseases due to sarcosystis, neospora and toxoplasma” (Bayer Corporation, priority 1998, dated 2000).
Values joined by “and” are separate entries in the source; they are usually repeats but may differ in a detail not shown here. Equal entries are not always repeated.

Key:
[1] = Drug levels in cerebral spinal fluid after repeated doses of Toltrazuril in horses; type: in vivo; parameters: Drug level in Cerebral Spinal Fluid, Day 10 / AVG drug level in Cerebral Spinal Fluid, Day 10: unit not given here; conditions: for AVG drug level in Cerebral Spinal Fluid, Day 10: group average; for Drug level in Cerebral Spinal Fluid, Day 10: individual horse
Experimental: (§1) This experiment was conducted in order to determine whether triazineones such as Toltrazuril can pass the blood-brain barrier. Normal horses were divided into three groups of three horses per group. Group 1 horses received Toltrazuril administered orally as a 5% suspension at a dose level of 2.5 mg/Kg. Group 2 horses received Toltrazuril administered orally as a 5% suspension at a dose level of 5.0 mg/Kg. Group 3 horses received Toltrazuril administered orally as a 5% suspension at a dose level of 7.5 mg/Kg. The dosing was repeated daily for 10 days. Blood samples were drawn at 48, 96 and 240 hours and the concentration of Toltrazuril, Toltrazuril sulfoxide and Ponazuril in the serum was measured. Ten days after the start of the treatment (Day 10), a sample of cerebral spinal fluid was removed from each horse and the concentrations of Toltrazuril, Toltrazuril Sulfoxide and Ponazuril were again measured in these samples. The concentrations of Toltrazuril, Toltrazuril Sulfoxide and Ponazuril in the serum and cerebral spinal fluid are reported in TABLES 5a and 5b.

[2] = Drug levels in serum after repeated doses of Toltrazuril in horses; type: in vivo; parameters: unit not given here; conditions: for AVG drug level in serum, 48 Hrs / AVG drug level in serum, 96 Hrs / AVG drug level in serum, 240 Hrs: group average; for Drug level in serum, 48 Hrs / Drug level in serum, 96 Hrs / Drug level in serum, 240 Hrs: individual horse
Experimental: as §1

Toxoplasma gondii = experiment: Microtiter Monolayer Disruption Assay (MMDA), Toxoplasma gondii; type: cell-based, Toxoplasma gondii strain RH; conditions: BT cells
Experimental: In order to determine the scope of protection provided by Ponazuril, in vitro testing was conducted. The following strains of parasites were evaluated for their sensitivity to this compound: Strain SN3 of Sarcocystis neurona; strain SF1 of Sarcocystis falcatula; strain RH of Toxoplasma gondii; and the NC-1 strain of Neospora caninum. […]
(§2) Bovine turbinate (BT) cells were used for all in vitro studies. Cells were grown to confluency in 25 cm^2 flasks in RMPI 1640 media supplemented with 10% v/v fetal bovine serum (FBS), 100 Units penicillin (G/mL), […] streptomycin/mL and 5×10^-2 mM 2-mercpatoethanol. After cell confluence was obtained, cells were maintained in the same media with reduced FBS (2% v/v). Cell cultures were incubated at 37 C. in a humidified atmosphere containing 5% carbon dioxide and 95% air.
(§3) For growth of parasites, BT cell monolayers were infected with parasites and examined with an inverted microscope for the development of lesions (cytopathic effect, "CPE") or the presence of many extracellular merozoites. Once lesions were observed, or many extracellular parasites were present, the monolayer was scraped with the tip of a 5 mL pipette and 1 to 3 drops of the merozoite-containing fluid was transferred to two flasks of fresh BT cells. Merozoites of S. neurona and S. falcatula were passaged in this manner every 5 to 10 days while the tachyzoites of T. gondii and N. caninum were passaged every 3 to 4 days.
The assay used to determine the effectiveness of Ponazuril was the Microtiter Monolayer Disruption Assay (MMDA). This assay was used to determine if the parasites or compound were toxic for BT cells. Flat bottomed 96-well microtiter plates were inoculated with BT cells and the resulting monolayers were used to determine the effects of Toltrazuril and Ponazuril on merozoite production as measured by CPE (plaque formation). […]

[3] = Pharmacokinetics of a single oral dose of Toltrazuril in horses (blood levels); type: in vivo; conditions: single oral dose of Toltrazuril 10 mg/kg
Experimental: A pharmacokinetic study was conducted in horses comparing blood levels of Toltrazuril, Ponazuril and Toltrazuril Sulfoxide at various times post a single dose of Toltrazuril. All horses received a single dose of 10 mg/kg, which was administered orally as a suspension. Blood samples were drawn at the time of treatment (0) and at 0.25, 0.5, 1, 2, 4, 6, 12, 24, 48 and 72 hours post treatment. […] This was an indication that Ponazuril, alone, would produce acceptable blood levels that are envisioned to pass the blood-brain barrier, a characteristic required to treat neurological diseases such as those caused by Sarcocystis neurona, Toxoplasma gondii, Neospora caninum and Neospora

Sarcocystis falcatula = experiment: Microtiter Monolayer Disruption Assay (MMDA), Sarcocystis falcatula; type: cell-based, Sarcocystis falcatula strain SF1; conditions: BT cells
Experimental: In order to determine the scope of protection provided by Ponazuril, in vitro testing was conducted. The following strains of parasites were evaluated for their sensitivity to this compound: Strain SN3 of Sarcocystis neurona; strain SF1 of Sarcocystis falcatula; strain RH of Toxoplasma gondii; and the NC-1 strain of Neospora caninum. Ponazuril was tested at 2 concentrations (1 μg/mL and 10 μg/mL).
as §2, §3
The assay used to determine the effectiveness of Ponazuril was the Microtiter Monolayer Disruption Assay (MMDA). This assay was used to determine if the parasites or compound were toxic for BT cells. Flat bottomed 96-well microtiter plates were inoculated with BT cells and the resulting monolayers were used to determine the effects of Toltrazuril and Ponazuril on merozoite production as measured by CPE (plaque formation). Monolayers were inoculated with parasites (S. neurona or S. falcatula at a count of 50,000/well, T. gondii at a level of 10,000/well, and N. caninum at 20,000/well. All wells were inoculated with the test compound 2 hours after infection. Untreated and […] monolayer wells served as parasite controls and uninfected agent treated BT cells served as toxicity controls. Each treatment was examined in replicates of 6. Each well was visually monitored daily and the assay was stopped when 90-100% of the untreated merozoite infected cells had lysed (90-100% CPE). All wells of the plates were rinsed in Phosphate Buffered Saline (PBS) and fixed in 100% methanol for 5 minutes after which they were stained in crystal violet solution. […]

[4] = Toltrazuril 2.5 mg/Kg oral daily for 10 days
[5] = Toltrazuril 5.0 mg/Kg oral daily for 10 days
[6] = Toltrazuril 7.5 mg/Kg oral daily for 10 days
[7] = 0.1 μg/mL, read-out: Percent Inhibition of Cell Destruction, 0.1 μg/mL

Cc1cc(-n2c(=O)[nH]c(=O)n(C)c2=O)ccc1Oc1ccc(S(=O)(=O)C(F)(F)F)cc1 [Ponazuril]
AVG drug level in Cerebral Spinal Fluid, Day 10 [1, 4]: 0.09 | Drug level in Cerebral Spinal Fluid, Day 10 [1, 4]: 0.09 and 0.07 and 0.11 | AVG drug level in Cerebral Spinal Fluid, Day 10 [1, 5]: 0.16 | Drug level in Cerebral Spinal Fluid, Day 10 [1, 5]: 0.12 and 0.14 and 0.21 | AVG drug level in Cerebral Spinal Fluid, Day 10 [1, 6]: 0.22 | Drug level in Cerebral Spinal Fluid, Day 10 [1, 6]: 0.23 and 0.17 and 0.27 | concentration in the cerebral spinal fluid compared with Toltrazuril ([1]; after treatment of horses with Toltrazuril): essentially equivalent to the concentration of Toltrazuril itself | AVG drug level in serum, 48 Hrs [2, 4]: 1.41 | AVG drug level in serum, 96 Hrs [2, 4]: 1.76 | AVG drug level in serum, 240 Hrs [2, 4]: 3.00 | Drug level in serum, 48 Hrs [2, 4]: 0.29 and 0.24 and 3.70 | Drug level in serum, 96 Hrs [2, 4]: 0.99 and 1.15 and 3.13 | Drug level in serum, 240 Hrs [2, 4]: 2.61 and 2.36 and 4.04 | AVG drug level in serum, 48 Hrs [2, 5]: 0.53 | AVG drug level in serum, 96 Hrs [2, 5]: 2.26 | AVG drug level in serum, 240 Hrs [2, 5]: 5.02 | Drug level in serum, 48 Hrs [2, 5]: 0.48 and 0.63 | Drug level in serum, 96 Hrs [2, 5]: 2.09 and 2.03 and 2.66 | Drug level in serum, 240 Hrs [2, 5]: 5.44 and 2.03 and 5.61 | AVG drug level in serum, 48 Hrs [2, 6]: 2.55 | AVG drug level in serum, 96 Hrs [2, 6]: 2.89 | AVG drug level in serum, 240 Hrs [2, 6]: 6.58 | Drug level in serum, 48 Hrs [2, 6]: 6.35 and 0.78 and 0.52 | Drug level in serum, 96 Hrs [2, 6]: 2.69 and 2.89 and 3.09 | Drug level in serum, 240 Hrs [2, 6]: 6.31 and 6.37 and 7.06 | inhibition at 0.001 µg/mL (Toxoplasma gondii; 0.001 μg/mL, read-out: Percent Inhibition of Cell Destruction, 0.001 μg/mL): 11% | inhibition at 0.1 µg/mL (Toxoplasma gondii; [7]): 100% | inhibition at 1 µg/mL (Toxoplasma gondii; 1.0 μg/mL, read-out: Percent Inhibition of Cell Destruction, 1.0 μg/mL): 100% | concentration at 0.25 h ([3]; horse, blood, po, 10 mg/kg, suspension, 0.25 h post treatment, one value per horse (A-F), read-out: Concentration in mg/l of Blood, 0.25 hours): 0.01 mg/L | concentration at 24 h ([3]; horse, blood, po, 10 mg/kg, suspension, 24 h post treatment, one value per horse (A-F), read-out: Concentration in mg/l of Blood, 24 hours): 0.324 mg/L | levels in serum/bloodstream of horses receiving Toltrazuril (in words) [3]: relatively high levels | Concentration in mg/l of Blood, 0.25 hours ([3]; suspension, 0.25 h post treatment, one value per horse (A-F), 10 mg/kg, 15 min): < 0.01 mg/L | Concentration in mg/l of Blood, 6 hours ([3]; suspension, 6 h post treatment, one value per horse (A-F), 10 mg/kg, 360 min): 0.061 mg/L | Concentration in mg/l of Blood, 24 hours ([3]; suspension, 24 h post treatment, one value per horse (A-F), 10 mg/kg, 1440 min): 0.255 mg/L and 0.315 mg/L and 0.231 mg/L and 0.192 mg/L | inhibition at 0.1 µg/mL (Sarcocystis falcatula; [7]): 61% | inhibition at 1 µg/mL (Sarcocystis falcatula; 1 μg/mL, read-out: Percent Inhibition of Cell Destruction, 1 μg/mL): 100% | inhibition at 5 µg/mL (Sarcocystis falcatula; 5.0 μg/mL, read-out: Percent Inhibition of Cell Destruction, 5.0 μg/mL): 100% | inhibition at 10 µg/mL (Sarcocystis falcatula; 10 μg/mL, read-out: Percent Inhibition of Cell Destruction, 10 μg/mL): 100%
